What was measured:
[1] = Lipophilicity, logD of compound at pH 7.4; format: physicochemical; conditions: buffer
[2] = Metabolic stability in rat Hepatocyte assessed as intrinsic clearance at 0.5 uM incubated for 60 mins by LC-MS/MS analysis; format: ADME, tissue-based; conditions: hepatocytes, 1 h
[3] = Half life in Beagle dog at 0.5 mg/kg, iv measured upto 24 hrs by LC-MS/MS analysis; format: ADME, organism-based, Canis lupus familiaris; conditions: in vivo
[4] = Clearance in Wistar Han rat at 1 mg/kg, iv measured upto 7 hrs by LC-MS/MS analysis; format: ADME, organism-based; conditions: in vivo
[5] = Clearance in Beagle dog at 0.5 mg/kg, iv measured upto 24 hrs by LC-MS/MS analysis; format: ADME, organism-based, Canis lupus familiaris; conditions: in vivo
[6] = Oral bioavailability in Wistar Han rat at 3 mg/kg measured upto 24 hrs by LC-MS/MS analysis; format: ADME, organism-based; conditions: in vivo
[7] = Volume of distribution at steady state in Beagle dog at 0.5 mg/kg, iv measured upto 24 hrs by LC-MS/MS analysis; format: ADME, organism-based, Canis lupus familiaris; conditions: in vivo, read-out: Vdss
[8] = Volume of distribution at steady state in Wistar Han rat at 1 mg/kg, iv measured upto 7 hrs by LC-MS/MS analysis; format: ADME, organism-based; conditions: in vivo, read-out: Vdss
[9] = LBF in Wistar Han rat at 1 mg/kg, iv measured upto 7 hrs by LC-MS/MS analysis; format: ADME, organism-based; conditions: in vivo
[10] = LBF in Beagle dog at 0.5 mg/kg, iv measured upto 24 hrs by LC-MS/MS analysis; format: ADME, organism-based, Canis lupus familiaris; conditions: in vivo
[11] = Oral bioavailability in Beagle dog at 0.5 mg/kg measured upto 24 hrs by LC-MS/MS analysis; format: ADME, organism-based, Canis lupus familiaris; conditions: in vivo
[12] = Unbound clearance in Wistar Han rat at 1 mg/kg, iv measured upto 7 hrs by LC-MS/MS analysis; format: ADME, organism-based; conditions: in vivo
[13] = Metabolic stability in dog Hepatocyte assessed as intrinsic clearance at 0.5 uM incubated for 60 mins by LC-MS/MS analysis; format: ADME, tissue-based, Canis lupus familiaris; conditions: hepatocytes, 1 h
[14] = Metabolic stability in human Hepatocyte assessed as intrinsic clearance at 0.5 uM incubated for 120 mins by LC-MS/MS analysis; format: ADME, tissue-based; conditions: hepatocytes, 2 h
[15] = Unbound clearance in Beagle dog at 0.5 mg/kg, iv measured upto 24 hrs by LC-MS/MS analysis; format: ADME, organism-based, Canis lupus familiaris; conditions: in vivo
[16] = Half life in Wistar Han rat at 1 mg/kg, iv measured upto 7 hrs by LC-MS/MS analysis; format: ADME, organism-based; conditions: in vivo

| Structure (SMILES) | logD [1] | CLH [2] | also measured |
| --- | --- | --- | --- |
| CNC(=O)c1cc(C(=O)N[C@H]2[C@@H]3COC[C@@H]32)cc2c1OC[C@H]2c1ccccn1 (racemic) | 1.6 |  |  |
| CNC(=O)c1cc(C(=O)N[C@H]2[C@@H]3COC[C@@H]32)cc2c1OC[C@H]2C1CCOCC1 | 2.1 |  |  |
| CNC(=O)c1cc(C(=O)NCCC[C@H]2OC[C@H](N)CO2)cc2c1O[C@H](CF)[C@H]2c1ccccc1 | 2.9 | 1.1 mL/min/g |  |
| CNC(=O)c1cc(C(=O)NC2CC2)cc2c1O[C@H](CF)[C@H]2c1ccccc1 | 3.9 | 3.2 mL/min/g |  |
| CNC(=O)c1cc(C(=O)NC2CC2)cc2c1OC[C@H]2c1ccc(F)cc1 | 3.8 | 6.1 mL/min/g |  |
| CNC(=O)c1cc(C(=O)NC2CC2)cc2c1OC[C@H]2c1cccc2[nH]ccc12 | 3.5 | 4.6 mL/min/g |  |
| CNC(=O)c1cc(C(=O)N[C@H]2[C@@H]3C[C@@H](O)C[C@@H]32)cc2c1OC[C@@]2(C)c1ccccc1 | 3.3 | 1 mL/min/g | half-life [3]: 174 min; clearance [4]: 55 mL/min/kg; clearance [5]: 5 mL/min/kg; bioavailability [6]: 32%; Vd [7]: 0.9 L/kg; Vd [8]: 2.3 L/kg; LBF [9]: 69%; LBF [10]: 8%; bioavailability [11]: 64%; CL free [12]: 260 mL/min/kg; CLH [13]: < 0.7 mL/min/g; CLH [14]: < 0.5 mL/min/g; CL free [15]: 24 mL/min/kg; half-life [16]: 42 min |
| CNC(=O)c1cc(C(=O)NC2CC2)cc2c1OC[C@@]2(C)c1ccccc1 | 4 | 6.7 mL/min/g |  |
| CNC(=O)c1cc(C(=O)N[C@H]2[C@@H]3COC[C@@H]32)cc2c1OC[C@H]2c1cccc2[nH]ccc12 | 3.1 | 3.6 mL/min/g |  |
| CNC(=O)c1cc(C(=O)N[C@@H]2C[C@H]2C)cc2c1O[C@H](CF)[C@H]2c1ccccc1 | 4.5 |  |  |
| CNC(=O)c1cc(C(N)=O)cc2c1OC[C@H]2c1ccccc1 | 2.7 |  |  |
| CNC(=O)c1cc(C(=O)N[C@H]2CC[C@H](O)CC2)cc2c1OC[C@@]2(C)c1ccccc1 | 3.3 |  |  |
| CNC(=O)c1cc(C(=O)N[C@H]2[C@@H]3C[C@@H](O)C[C@@H]32)cc2c1OC[C@H]2c1ccccc1 | 2.9 | 3.3 mL/min/g |  |
| CNC(=O)c1cc(C(=O)N[C@H]2[C@@H]3COC[C@@H]32)cc2c1OC[C@@]2(C)c1ccccc1 | 3.7 | 1.2 mL/min/g | clearance [4]: 61 mL/min/kg; bioavailability [6]: 54%; Vd [8]: 1.6 L/kg; LBF [9]: 77%; CL free [12]: 274 mL/min/kg; CLH [13]: < 0.7 mL/min/g; CLH [14]: < 0.5 mL/min/g; half-life [16]: 18 min |
| CNC(=O)c1cc(C(=O)N[C@H]2[C@@H]3COC[C@@H]32)cc2c1OC[C@H]2c1ccc(F)cc1 | 3.6 | 14.8 mL/min/g |  |
| CNC(=O)c1cc(C(=O)NCCc2cnn(C)c2)cc2c1OC[C@H]2c1cccc2[nH]ccc12 | 3.2 | 16.3 mL/min/g |  |
| CC[C@@]1(c2ccccc2)COc2c(C(=O)NC)cc(C(=O)N[C@H]3[C@@H]4COC[C@@H]43)cc21 | 4.2 |  |  |
| CCC(=O)N1C[C@@H]2[C@H](C1)[C@H]2NC(=O)c1cc(C(=O)NC)c2c(c1)[C@H](c1ccccc1)CO2 | 3.4 | 6.8 mL/min/g |  |
| CNC(=O)c1cc(C(=O)NC)c2c(c1)[C@H](c1ccccc1)CO2 | 3.2 |  |  |
| CNC(=O)c1cc(C(=O)NC)c2c(c1)[C@H](c1ccccc1)[C@@H](CF)O2 | 3.3 | 3 mL/min/g |  |

| Structure (SMILES) | logD [1] | CLH [2] | also measured |
| --- | --- | --- | --- |
| CNC(=O)c1cc(C(=O)N[C@H]2C[C@@H]2C)cc2c1OC[C@@]2(C)c1ccccc1 | 4.7 |  |  |
| CNC(=O)c1cc(C(=O)NC2CC2)cn(Cc2ccccc2)c1=O [GSK620] | 3.1 | 1 mL/min/g |  |
| CNC(=O)c1cc(C(=O)N[C@H]2C[C@@H]2C)cc2c1OC[C@@]2(CO)c1ccccc1 | 3.3 | 2.7 mL/min/g | clearance [4]: 60 mL/min/kg; bioavailability [6]: 38%; Vd [8]: 1.2 L/kg; LBF [9]: 60%; CL free [12]: 340 mL/min/kg; CLH [13]: 1 mL/min/g; CLH [14]: < 0.5 mL/min/g; half-life [16]: 18 min |
| CNC(=O)c1cc(C(=O)N[C@H]2[C@@H]3COC[C@@H]32)cc2c1O[C@H](CF)[C@H]2c1ccccc1 [GSK973] | 3.6 | 1.8 mL/min/g |  |
| CNC(=O)c1cc(C(=O)N[C@H]2[C@@H]3COC[C@@H]32)cc2c1OC[C@H]2c1ccncc1 (racemic) | 1.3 |  |  |
| CNC(=O)c1cc(C(=O)NC2CC2)cc2c1OC[C@H]2c1ccccc1 | 3.6 | 2 mL/min/g | clearance [4]: 34 mL/min/kg; bioavailability [6]: 47%; Vd [8]: 0.6 L/kg; LBF [9]: 43%; CL free [12]: 723 mL/min/kg; CLH [13]: < 0.7 mL/min/g; CLH [14]: < 0.5 mL/min/g; half-life [16]: 18 min |
| CNC(=O)c1cc(C(=O)N[C@H]2[C@@H]3COC[C@@H]32)cc2c1OC[C@H]2c1ccccc1C | 4 | 30.9 mL/min/g |  |
| CNC(=O)c1cc(C(=O)NC)c2c(c1)[C@](C)(c1ccccc1)CO2 | 3.4 |  |  |
| CNC(=O)c1cc(C(=O)NCCC[C@H]2OC[C@H](N)CO2)cc2c1OC[C@H]2c1ccccc1 | 2.6 |  |  |
| CNC(=O)c1cc(C(=O)NC2CC2)cc2c1OC[C@H]2c1cccc(F)c1 | 3.7 | 10 mL/min/g |  |
| CNC(=O)c1cc(C(=O)N[C@H]2[C@@H]3C[C@H](O)C[C@@H]32)cc2c1OC[C@@]2(C)c1ccccc1 | 3.7 | 6.4 mL/min/g |  |
| CNC(=O)c1cc(C(=O)N[C@H]2[C@@H]3COC[C@@H]32)cc2c1OC[C@H]2c1ccccc1 | 3.3 | 8.6 mL/min/g |  |
| CNC(=O)c1cc(C(=O)NCCc2cnn(C)c2)cc2c1OC[C@H]2c1ccccc1 | 3.2 |  |  |
| CNC(=O)c1cc(C(N)=O)cc2c1O[C@H](CF)[C@H]2c1ccccc1 | 2.9 |  |  |
| CNC(=O)c1cc(C(=O)Nc2cnn(C)c2)cc2c1OC[C@H]2c1ccccc1 | 3.5 | 20.1 mL/min/g |  |
| CNC(=O)c1cc(C(=O)N[C@H]2[C@@H]3COC[C@@H]32)cc2c1OC[C@H]2c1cccnc1 (racemic) | 1.4 |  |  |
| CNC(=O)c1cc(C(=O)N[C@H]2[C@@H]3COC[C@@H]32)cc2c1OC[C@H]2c1cccc(OC)c1 (racemic) | 3.2 |  |  |
| CNC(=O)c1cc(C(=O)N[C@H]2[C@@H]3COC[C@@H]32)cc2c1OC[C@@]2(CO)c1ccccc1 | 2.4 | 1.4 mL/min/g |  |
| CNC(=O)c1cc(C(=O)NC2CC2)cc2c1OC[C@H]2c1cccc(OC)c1 (racemic) | 3.8 |  |  |
| CNC(=O)c1cc(C(=O)N[C@H]2C[C@@H]2C)cc2c1OC[C@H]2c1ccccc1 | 4.5 |  |  |

— ChEMBL document CHEMBL4834466 (J Med Chem, 2021)
